Measurements from ChEMBL document CHEMBL5137033, “Development of sulfonamide-based NLRP3 inhibitors: Further modifications and optimization through structure-activity relationship studies” (Eur J Med Chem, 2022).

How the values were obtained:
[1] = target: T1, Interferon-inducible protein AIM2 (Mus musculus) (UniProt Q91VJ1); assay: Inhibition of AIM2 inflammasome in LPS-primed mouse J774.A1 cells assessed as IL-1beta secretion at 10 uM preincubated for 1 hr followed by poly(dA:dT) addition and measured after 4 hrs by ELISA relative to control; type: cell-based; parameters: scale not given: the % may be the effect or the level left; settings: time 5.0 hrs
T1 sequence (whole entry): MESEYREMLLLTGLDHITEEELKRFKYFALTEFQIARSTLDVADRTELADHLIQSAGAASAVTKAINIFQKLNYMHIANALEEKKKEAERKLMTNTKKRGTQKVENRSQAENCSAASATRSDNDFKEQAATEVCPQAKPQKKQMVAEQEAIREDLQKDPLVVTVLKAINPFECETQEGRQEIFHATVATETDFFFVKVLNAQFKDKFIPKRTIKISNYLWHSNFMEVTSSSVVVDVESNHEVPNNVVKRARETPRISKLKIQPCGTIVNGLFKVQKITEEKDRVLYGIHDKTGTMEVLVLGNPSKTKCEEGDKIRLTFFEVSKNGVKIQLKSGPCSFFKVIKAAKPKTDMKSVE

[2] = test system: HEK293; assay: (§1) Cytotoxicity against HEK293 cells assessed as cell viability at 10 uM incubated for 4 hrs by MTT assay relative to control; type: toxicity, cell-based; settings: human, hek293, 4 h, 10 µM
[3] = target: T2, NACHT, LRR and PYD domains-containing protein 3 (Mus musculus, UniProt Q8R4B8); assay: Inhibition of NLRP3 inflammasome in LPS-primed mouse J774.A1 cells assessed as reduction in IL-1beta secretion preincubated for 30 mins followed by ATP addition and measured after 30 mins by ELISA; type: cell-based
[4] = target: NLR family CARD domain-containing protein 4 (Mus musculus) (UniProt Q3UP24); assay: Inhibition of NLRC4 inflammasome in LPS-primed mouse J774.A1 cells assessed as IL-1beta secretion at 10 uM preincubated for 1 hr followed by flagellin addition and measured after 6 hrs by ELISA relative to control; type: cell-based; parameters: scale not given: the % may be the effect or the level left; settings: time 7.0 hrs
[5] = test system: J774.A1; assay: (§2) Cytotoxicity against mouse J774.A1 cells assessed as cell viability at 10 uM incubated for 4 hrs by MTT assay relative to control; type: toxicity, cell-based; settings: j774.a1, 4 h, 10 µM
[6] = Drug uptake in iv dosed C57BL/6 mouse brain thalamus measured after 60 mins by PET/CT imaging analysis; type: ADME, organism-based; settings: in vivo, 1 h
[7] = Drug uptake in iv dosed C57BL/6 mouse hippocampus measured after 60 mins by PET/CT imaging analysis; type: ADME, organism-based; settings: in vivo, 1 h
[8] = Drug uptake in iv dosed C57BL/6 mouse brain measured after 60 mins by PET/CT imaging analysis; type: ADME, organism-based; settings: in vivo, 1 h
[9] = Drug uptake in iv dosed C57BL/6 mouse liver measured after 60 mins; settings: in vivo, 1 h
[10] = Drug uptake in iv dosed C57BL/6 mouse kidney measured after 3 min by PET/CT imaging analysis; type: ADME, organism-based; settings: in vivo, 0.05 h
[11] = Drug uptake in iv dosed C57BL/6 mouse lung measured after 60 mins; settings: in vivo, 1 h
[12] = Drug uptake in iv dosed C57BL/6 mouse brain cerebellum measured after 60 mins by PET/CT imaging analysis; type: ADME, organism-based; settings: in vivo, 1 h
[13] = Drug uptake in iv dosed C57BL/6 mouse brain cortex measured after 60 mins by PET/CT imaging analysis; type: ADME, organism-based; settings: in vivo, 1 h
[14] = Drug uptake in iv dosed C57BL/6 mouse Brainstem measured after 60 mins by PET/CT imaging analysis; type: ADME, organism-based; settings: in vivo, 1 h
[15] = Drug uptake in iv dosed C57BL/6 mouse liver measured after 3 min by PET/CT imaging analysis; type: ADME, organism-based; settings: in vivo, 0.05 h
[16] = Drug uptake in iv dosed C57BL/6 mouse lung measured after 1 min by PET/CT imaging analysis; type: ADME, organism-based; settings: in vivo
[17] = Drug uptake in iv dosed C57BL/6 mouse Midbrain measured after 60 mins by PET/CT imaging analysis; type: ADME, organism-based; settings: in vivo, 1 h
[18] = Drug uptake in iv dosed C57BL/6 mouse blood measured after 60 mins; settings: in vivo, 1 h
[19] = Drug uptake in iv dosed C57BL/6 mouse brain striatum measured after 60 mins by PET/CT imaging analysis; type: ADME, organism-based; settings: in vivo, 1 h
[20] = Uptake in iv dosed C57BL/6 mouse kidney measured after 60 mins; settings: in vivo, 1 h
[21] = Drug uptake in iv dosed C57BL/6 mouse blood measured after 1 min by PET/CT imaging analysis; type: ADME, organism-based; settings: in vivo
[22] = as §1; type: toxicity, cell-based; settings: human, HEK293 cells, read-out: Activity
[23] = as §2; type: toxicity, cell-based; settings: J774.A1 cells, read-out: Activity
[24] = target: NLR family CARD domain-containing protein 4 (Mus musculus, UniProt Q3UP24); assay: Inhibition of NLRC4 inflammasome in LPS-primed mouse J774.A1 cells assessed as reduction in IL-1beta secretion preincubated for 1 hr followed by flagellin addition and measured after 6 hrs by ELISA; type: cell-based
[25] = target: T3, Interferon-inducible protein AIM2 (Mus musculus, UniProt Q91VJ1); assay: Inhibition of AIM2 inflammasome in LPS-primed mouse J774.A1 cells assessed as reduction in IL-1beta secretion preincubated for 1 hr followed by poly(dA:dT) addition and measured after 4 hrs by ELISA; type: cell-based
T3 sequence (Q91VJ1 whole entry): T1 sequence (whole entry)

[26] = target: T2, NACHT, LRR and PYD domains-containing protein 3; assay: Inhibition of NLRP3 inflammasome in LPS-primed mouse BMDM cells assessed as reduction in IL-1beta secretion preincubated for 30 mins followed by ATP addition and measured after 30 mins by ELISA; type: cell-based
[27] = target: NACHT, LRR and PYD domains-containing protein 3 (Homo sapiens, UniProt Q96P20); assay: Binding affinity to human recombinant full length NLRP3 transfected in HEK293F cells assessed as dissociation constant incubated for 40 mins by microscale thermophoresis analysis
[28] = Inhibition of IL-1beta production in C57BL/6 mouse assessed as reduction in IL-1beta level in serum at 10 mg/kg, ip pretreated with compound followed by LPS addition and measured after 2.5 hrs by ELISA; type: functional

T2 sequence (Q8R4B8 whole entry, the tested form may be a part): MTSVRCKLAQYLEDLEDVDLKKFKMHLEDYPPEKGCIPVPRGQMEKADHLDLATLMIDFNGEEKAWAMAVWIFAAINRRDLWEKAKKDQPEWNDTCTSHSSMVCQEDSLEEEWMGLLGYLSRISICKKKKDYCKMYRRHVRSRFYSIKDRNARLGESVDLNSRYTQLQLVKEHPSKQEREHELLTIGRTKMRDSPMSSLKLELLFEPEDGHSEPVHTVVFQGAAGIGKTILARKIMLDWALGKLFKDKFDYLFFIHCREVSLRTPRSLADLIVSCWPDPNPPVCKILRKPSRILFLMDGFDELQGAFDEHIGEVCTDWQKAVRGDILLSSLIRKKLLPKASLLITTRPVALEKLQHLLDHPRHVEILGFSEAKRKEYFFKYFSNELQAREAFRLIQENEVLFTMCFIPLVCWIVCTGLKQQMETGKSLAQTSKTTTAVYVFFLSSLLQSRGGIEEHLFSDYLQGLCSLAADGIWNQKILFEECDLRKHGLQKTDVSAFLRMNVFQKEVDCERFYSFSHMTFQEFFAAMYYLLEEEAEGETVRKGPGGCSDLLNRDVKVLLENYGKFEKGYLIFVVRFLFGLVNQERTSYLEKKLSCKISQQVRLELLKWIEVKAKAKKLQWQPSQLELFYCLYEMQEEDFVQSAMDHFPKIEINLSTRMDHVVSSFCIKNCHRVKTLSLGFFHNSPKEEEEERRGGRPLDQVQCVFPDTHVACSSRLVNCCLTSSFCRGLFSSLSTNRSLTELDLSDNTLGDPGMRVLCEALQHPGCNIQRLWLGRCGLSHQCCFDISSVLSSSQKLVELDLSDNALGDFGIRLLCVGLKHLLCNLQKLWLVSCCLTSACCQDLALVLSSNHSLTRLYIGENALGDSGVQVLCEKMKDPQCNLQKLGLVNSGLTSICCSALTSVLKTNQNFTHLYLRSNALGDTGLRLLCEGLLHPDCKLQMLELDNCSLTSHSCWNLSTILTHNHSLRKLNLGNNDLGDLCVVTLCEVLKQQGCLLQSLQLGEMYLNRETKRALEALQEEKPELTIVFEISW
NLR family CARD domain-containing protein 4 (Mus musculus), sequence (Q3UP24 whole entry, the tested form may be a part): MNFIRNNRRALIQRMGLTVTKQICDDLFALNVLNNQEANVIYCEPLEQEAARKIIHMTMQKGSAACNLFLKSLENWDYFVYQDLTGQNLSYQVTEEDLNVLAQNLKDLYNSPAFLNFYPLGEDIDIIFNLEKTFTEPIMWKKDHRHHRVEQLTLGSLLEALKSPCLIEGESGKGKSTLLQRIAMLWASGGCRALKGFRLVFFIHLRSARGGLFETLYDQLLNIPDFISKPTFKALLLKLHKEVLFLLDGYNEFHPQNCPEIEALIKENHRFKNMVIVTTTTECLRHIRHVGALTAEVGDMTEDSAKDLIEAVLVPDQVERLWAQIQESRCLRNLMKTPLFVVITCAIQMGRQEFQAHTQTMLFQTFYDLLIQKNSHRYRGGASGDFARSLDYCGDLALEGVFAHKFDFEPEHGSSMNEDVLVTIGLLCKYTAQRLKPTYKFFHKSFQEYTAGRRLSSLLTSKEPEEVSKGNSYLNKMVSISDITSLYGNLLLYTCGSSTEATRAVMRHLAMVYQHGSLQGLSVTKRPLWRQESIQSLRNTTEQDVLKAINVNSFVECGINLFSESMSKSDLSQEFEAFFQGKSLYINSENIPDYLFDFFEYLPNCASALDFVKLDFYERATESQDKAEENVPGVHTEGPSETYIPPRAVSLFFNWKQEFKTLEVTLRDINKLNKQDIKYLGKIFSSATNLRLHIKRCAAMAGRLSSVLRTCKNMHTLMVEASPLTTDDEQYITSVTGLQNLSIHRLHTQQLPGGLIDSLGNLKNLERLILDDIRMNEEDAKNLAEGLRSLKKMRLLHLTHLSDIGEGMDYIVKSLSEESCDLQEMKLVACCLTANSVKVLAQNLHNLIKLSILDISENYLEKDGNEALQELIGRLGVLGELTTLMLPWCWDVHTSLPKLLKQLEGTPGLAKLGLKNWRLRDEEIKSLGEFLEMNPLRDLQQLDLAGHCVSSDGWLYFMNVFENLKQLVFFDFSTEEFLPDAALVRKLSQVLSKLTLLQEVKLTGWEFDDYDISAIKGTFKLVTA
NLR family CARD domain-containing protein 4, sequence (Q3UP24 whole entry, the tested form may be a part): as above
NACHT, LRR and PYD domains-containing protein 3 (Homo sapiens, UniProt Q96P20), sequence (Q96P20 whole entry, the tested form may be a part): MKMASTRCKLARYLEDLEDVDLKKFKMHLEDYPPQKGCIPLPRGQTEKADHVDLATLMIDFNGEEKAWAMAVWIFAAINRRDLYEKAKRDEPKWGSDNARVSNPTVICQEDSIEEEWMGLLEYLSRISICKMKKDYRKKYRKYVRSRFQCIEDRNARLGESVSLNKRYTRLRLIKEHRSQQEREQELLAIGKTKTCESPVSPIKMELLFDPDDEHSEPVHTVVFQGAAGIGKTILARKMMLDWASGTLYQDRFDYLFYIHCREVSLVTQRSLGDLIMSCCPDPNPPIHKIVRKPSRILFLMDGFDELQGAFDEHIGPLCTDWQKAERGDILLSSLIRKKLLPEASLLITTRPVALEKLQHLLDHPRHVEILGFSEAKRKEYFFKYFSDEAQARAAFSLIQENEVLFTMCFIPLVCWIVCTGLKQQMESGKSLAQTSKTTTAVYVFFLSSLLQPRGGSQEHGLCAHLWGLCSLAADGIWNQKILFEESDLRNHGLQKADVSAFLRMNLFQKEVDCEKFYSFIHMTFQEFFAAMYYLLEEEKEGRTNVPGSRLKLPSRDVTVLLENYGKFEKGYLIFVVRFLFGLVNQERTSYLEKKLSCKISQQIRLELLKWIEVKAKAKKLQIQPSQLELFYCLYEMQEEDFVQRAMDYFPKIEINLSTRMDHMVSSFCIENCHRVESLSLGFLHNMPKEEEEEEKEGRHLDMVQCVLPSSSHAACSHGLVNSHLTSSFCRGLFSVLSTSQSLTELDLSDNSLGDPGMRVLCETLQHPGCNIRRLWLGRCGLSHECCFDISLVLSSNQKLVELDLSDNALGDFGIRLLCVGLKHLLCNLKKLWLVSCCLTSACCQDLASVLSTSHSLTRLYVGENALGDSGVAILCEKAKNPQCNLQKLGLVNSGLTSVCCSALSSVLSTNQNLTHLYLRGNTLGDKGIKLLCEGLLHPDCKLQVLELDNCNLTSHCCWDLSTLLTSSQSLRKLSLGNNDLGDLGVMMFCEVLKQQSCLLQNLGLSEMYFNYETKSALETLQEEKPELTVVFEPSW

Row | Compound | Activity [1] | IC50 [3] | Activity [4] | Activity [2] | Activity [5] | also measured
1 | C#CCNS(=O)(=O)c1ccc(CCN(Cc2ccsc2)Cc2cc(Cl)ccc2OCCC)cc1 | 49.8% | 750 nM | 28.9% | 82% | 90.5% | 
2 | C#CCNS(=O)(=O)c1ccc(CCN(Cc2cc(Cl)ccc2OCCC)C(=O)Cc2ccsc2)cc1 |  |  |  | 99% | 106% | 
3 | CCCOc1ccc(Cl)cc1CN(CCc1ccc(S(=O)(=O)NCC(C)(C)C)cc1)C(=O)Cc1ccsc1 | 52.3% | 660 nM | 89.3% |  | 105.1% | 
4 | CCCOc1ccc(Cl)cc1CN(CCc1ccc(S(=O)(=O)N2CCC2)cc1)C(=O)c1csc2ccccc12 |  | 7580 nM |  | 100.7% | 107% | 
5 | C#CCNS(=O)(=O)c1ccc(CCN(Cc2cc(Cl)ccc2OCCC)C(=O)CCCc2ccsc2)cc1 |  | 1170 nM |  | 89.1% | 97.9% | 
6 | C#CCNS(=O)(=O)c1ccc(CCN(Cc2cc(Cl)ccc2OCCC)C(=O)c2ccc([18F])cc2)cc1 |  |  |  |  |  | Drug uptake [6]: Active; Drug uptake [7]: Active; Drug uptake [8]: 1.8 %ID/cc; Drug uptake [9]: 12 %ID/cc; Drug uptake [10]: 20 %ID/cc; Drug uptake [11]: 4.7 %ID/cc; Drug uptake [12]: Active; Drug uptake [13]: Active; Drug uptake [14]: Active; Drug uptake [15]: 18.1 %ID/cc; Drug uptake [16]: 22.6 %ID/cc; Drug uptake [17]: Active; Drug uptake [18]: 4.2 %ID/cc; Drug uptake [19]: Active; Drug uptake [20]: 12.3 %ID/cc; Drug uptake [21]: 30.1 %ID/cc
7 | C#CCNS(=O)(=O)c1ccc(CCN(Cc2cccc3c2OCO3)C(=O)c2ccc(F)cc2)cc1 |  | 930 nM |  | 93.4% | 99.5% | 
8 | C#CCNS(=O)(=O)c1ccc(CCN(Cc2cc(Cl)ccc2N)C(=O)Cc2ccsc2)cc1 |  | 1130 nM |  | 92.9% | 93.5% | 
9 | CC(C)(C)c1coc(S(=O)(=O)NC(=O)Nc2c3c(cc4c2CCC4)CCC3)c1 |  |  |  |  |  | viability at 4 h, 10 µM [22]: 95.2%; viability at 4 h, 10 µM [23]: 94.9%
10 | C#CCS(=O)(=O)c1ccc(CCN(Cc2cc(Cl)ccc2OCCC)C(=O)c2csc3ccccc23)cc1 | 0% | 440 nM | 29.1% | 95.6% | 85.7% | 
11 | CCCOc1ccc(Cl)cc1CN(CCc1ccc(S(=O)(=O)N2CCC2)cc1)C(=O)Cc1ccc(F)cc1 | 102% | 1350 nM | 109% | 103.6% | 106.1% | 
12 | CCCOc1ccc(Cl)cc1CN(CCc1ccc(S(=O)(=O)N2CCOCC2)cc1)C(=O)Cc1ccsc1 |  | 470 nM |  | 88.3% | 103.4% | 
13 | C#CCNS(=O)(=O)c1ccc(CCN(Cc2ccccc2OCCC)C(=O)Cc2ccsc2)cc1 | 61.4% | 790 nM | 70.1% | 98.9% | 100.2% | 
14 | C#CCNS(=O)(=O)c1ccc(CCN(Cc2ccco2)C(=O)Cc2ccsc2)cc1 | 89.4% | 2490 nM | 76.2% | 96.4% | 112.9% | 
15 | C#CCNS(=O)(=O)c1ccc(CCN(Cc2cc(Cl)ccc2OCCC)C(=O)c2ccc(B3OC(C)(C)C(C)(C)O3)cc2)cc1 |  | 2490 nM |  | 95.2% | 88.1% | 
16 | C#CCNS(=O)(=O)c1ccc(CCN(Cc2cc(Cl)ccc2OCCC)C(=O)c2ccc(O)cc2)cc1 |  | 620 nM |  | 92.1% | 83.5% | 
17 | C#CCNS(=O)(=O)c1ccc(CCN(Cc2cc(Cl)ccc2OCCC)C(=O)c2csc3c2CCCC3)cc1 |  | 510 nM |  | 95.9% | 93.7% | 
18 | C#CCNS(=O)(=O)c1ccc(CCN(Cc2cc(Cl)ccc2O)C(=O)Cc2ccsc2)cc1 | 47.3% | 680 nM | 8% | 97.6% | 92% | 
19 | C#CCNS(=O)(=O)c1ccc(CCN(Cc2cc(Cl)ccc2C(F)(F)F)C(=O)Cc2ccsc2)cc1 |  | 460 nM |  | 92.1% | 93.1% | 
20 | C#CCNS(=O)(=O)c1ccc(CCN(Cc2cc(Cl)ccc2OCCC)C(=O)c2ccc([N+](=O)[O-])cc2)cc1 |  | 760 nM |  | 91.6% | 101.3% | 

More lines, main results first:

Row | Activity [1] | IC50 [3] | Activity [4] | Compound | Activity [2] | Activity [5] | also measured
21 | 68.8% | 340 nM | 66.9% | C#CCNS(=O)(=O)c1ccc(CCN(Cc2cccc3c2OCO3)C(=O)Cc2ccsc2)cc1 | 100.7% | 100% | 
22 | 59.1% | 190 nM | 102% | C#CCNS(=O)(=O)c1ccc(CCN(Cc2cccc3c2OCO3)C(=O)Cc2ccc(F)cc2)cc1 | 96.2% | 96.8% | 
23 | 79.7% | 130 nM | 74.7% | C#CCNS(=O)(=O)c1ccc(CCN(Cc2cc(Cl)ccc2OCCC)C(=O)c2csc3ccccc23)cc1 | 92.6% | 108.1% | 
24 | 108% | 320 nM | 80.8% | C#CCN(C)S(=O)(=O)c1ccc(CCN(Cc2cc(Cl)ccc2OCCC)C(=O)Cc2ccsc2)cc1 | 94.5% | 105.8% | IC50 [24]: > 10000 nM; IC50 [25]: > 10000 nM
25 | 0% | 190 nM | 0% | C#CCS(=O)(=O)c1ccc(CCN(Cc2cc(Cl)ccc2OCCC)C(=O)Cc2ccsc2)cc1 | 88.7% | 81.1% | 
26 | 96.7% | 210 nM | 85.6% | C#CCNS(=O)(=O)c1ccc(CCN(Cc2cc(Cl)ccc2OCCC)C(=O)Cc2csc3ccccc23)cc1 | 99.8% | 105.4% | IC50 [24]: > 10000 nM; IC50 [25]: > 10000 nM
27 | 67.6% | 120 nM | 101% | C#CCNS(=O)(=O)c1ccc(CCN(Cc2cc(Cl)ccc2OCCC)C(=O)c2ccc(F)cc2)cc1 | 91.6% | 96.3% | IC50 [26]: 910 nM; Kd [27]: 84 nM; IC50 [24]: > 10000 nM; IC50 [25]: > 10000 nM; inhibition in vivo at 10 mg/kg [28]: 75%
28 | 82.7% | 300 nM | 78.9% | C#CCNS(=O)(=O)c1ccc(CCN(Cc2cc(Cl)ccc2[N+](=O)[O-])C(=O)Cc2ccsc2)cc1 | 96.2% | 98.7% | 
29 |  | 210 nM |  | C#CCNS(=O)(=O)c1ccc(CCN(Cc2cc(Cl)ccc2OCC#C)C(=O)Cc2ccsc2)cc1 | 94.8% | 95.5% | 
30 |  | 280 nM |  | C#CCNS(=O)(=O)c1ccc(CCN(Cc2cc(Cl)ccc2OCCC)C(=O)Cc2ccc(F)cc2)cc1 | 90.6% | 102.2% | 
